According to patent US10995091B2 (Proximagen, LLC, priority 2010, dated 2021):

target: T1, Human CXCR4 transfected HEK293 cells (Homo sapiens, UniProt P61073); experiment: CXCR4 functional calcium assay (calcium flux FLIPR, antagonism of SDF1 response); format: cell-based; settings: CXCR4 functional activity, antagonism of SDF1 (EC50 concentration), read-out: CXCR4 fKi
T1 construct: expressed in transfected cells; host or cells: HEK293
Protocol: The functional activity of test compounds was routinely tested by measuring the ability of compounds to antagonize CXCR4 activity in a dose dependent manner, using a calcium flux Fluorescent Imaging Plate Reader FLIPR assay.
Human CXCR4 transfected HEK293 cells were cultured in Dulbecco's modified Eagles medium containing 4.5 g/L glucose, L-glutamine, pyruvate, 50 µg/mL Geneticin and 250 µg/mL hygromycin B and maintained at 37° C. in a humidified, 5% CO2 controlled atmosphere. Subcultivations were performed every 2-3 d.
At confluence the cells were lifted using Ca^2+ and Mg^2+ free PBS/0.02% (w/v) EDTA, spun at 1000 rpm for 3 min and resuspended at 2.5×10^5 cells/mL. Cells were plated into a 384 well, poly-d-lysine coated, black with clear bottomed plate (Becton Dickinson) at 7500 cells/well. The plates were incubated overnight at 37° C. under 5% CO2. On the day of the experiment the cells were washed with incubation Buffer (HBSS containing 2.5 mM probenecid, 0.1% w/v BSA and 10 mM HEPES, pH 7.4 at 37° C.). After washing, the cells were loaded with Fluo-4 AM dye (Molecular probes) at 2 µM containing 0.48 µg/mL pluronic acid for 60 min at 37° C. under 5% CO2. After thorough washing with incubation buffer the cells were preincubated for 10 min at 37° C. before use.
A combined agonist/antagonist protocol was used to measure changes in intracellular calcium concentration. Compound (antagonist) was added to the cell plate using a Fluorometric Imaging Plate Reader (FLIPR) (Molecular Devices, Sunnyvale, Calif., USA). Basal fluorescence was recorded every second for 10 seconds prior to compound addition (10 μl) and fluorescence recorded every second for 1 min then every 6 seconds for a further 1 min. SDF1[…] (EC50 concentration) was then added using the FLIPR and fluorescence recorded as described above. Curve-fitting and parameter estimation were carried out using GraphPad Prism 4.0 (GraphPad Software Inc., San Diego, Calif.).

T1 sequence (P61073 whole entry): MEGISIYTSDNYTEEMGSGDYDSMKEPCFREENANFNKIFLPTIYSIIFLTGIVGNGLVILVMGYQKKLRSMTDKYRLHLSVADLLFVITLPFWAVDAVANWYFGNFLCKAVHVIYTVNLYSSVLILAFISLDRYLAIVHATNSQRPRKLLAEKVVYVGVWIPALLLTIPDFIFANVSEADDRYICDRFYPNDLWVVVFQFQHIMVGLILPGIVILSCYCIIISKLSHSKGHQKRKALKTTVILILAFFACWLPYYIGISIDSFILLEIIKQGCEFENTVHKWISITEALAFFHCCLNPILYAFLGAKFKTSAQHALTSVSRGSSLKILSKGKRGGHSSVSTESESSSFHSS

| Ki | Structure (SMILES) |
| --- | --- |
| 20 to 100 nM | COCC(C)N1CCC(N2CCCN(c3cccc(C(=O)NCC4CC4)n3)CC2)CC1 (centres unmarked) [Example 127, N-(Cyclopropylmethyl)-6-{4-[1-(1-methoxypropan-2-yl)piperidin-4-yl]-1,4-diazepan-1-yl}pyridine-2-carboxamide] |
| 100 to 500 nM | Cc1nc(-c2cccc(N3CCN(C4CCCN(C(C)C)CC4)CC3)n2)[nH]c1C1CC1 (centres unmarked) [Example 243, 4-{4-[6-(5-Cyclopropyl-4-methyl-1H-imidazol-2-yl)pyridin-2-yl]piperazin-1-yl}-1-(propan-2-yl)azepane] |
| 100 to 500 nM | CC(C)N1CCC(N2CCCN(c3cccc(C(=O)NC4CC4)n3)CC2)CC1 [Example 11, N-Cyclopropyl-6-{4-[1-(propan-2-yl)piperidin-4-yl]-1,4-diazepan-1-yl}pyridine-2-carboxamide] |
| 500 to 1000 nM | O=C(NCC1CC1)c1cccc(N2CCC(NCc3ccccc3Cl)CC2)n1 [Example 248, 6-(4-{[(2-Chlorophenyl)methyl]amino}piperidin-1-yl)-N-(cyclopropylmethyl)pyridine-2-carboxamide] |
| < 20 nM | [2H]C1([2H])CCN(c2cccc(C(=O)Nc3ccncc3)n2)CC(C)N1C1CCN(C(C)C)CC1 (centres unmarked) [Example 195, 6-{5,5-Dihydrogenio-3-methyl-4-[1-(propan-2-yl)piperidin-4-yl]-1,4-diazepan-1-yl}-N-(pyridin-4-yl)pyridine-2-carboxamide] |
| 20 to 100 nM | O=C(NC1CCOCC1)c1cccc(N2CCCN(C3CCN(Cc4ccccc4Cl)CC3)CC2)n1 [Example 52, 6-(4-{1-[(2-Chlorophenyl)methyl]piperidin-4-yl}-1,4-diazepan-1-yl)-N-(oxan-4-yl)pyridine-2-carboxamide] |
| < 20 nM | CC(C)N1CCC(N2CCCN(c3cccc(C(=O)NCc4cccnc4)n3)CC2)CC1 [Example 34, 6-{4-[1-(Propan-2-yl)piperidin-4-yl]-1,4-diazepan-1-yl}-N-(pyridin-3-ylmethyl)pyridine-2-carboxamide] |
| 500 to 1000 nM | COCCN1CCC(N2CCCN(c3cccc(C(=O)NCC4CC4)n3)CC2)CC1 [Example 71, N-(Cyclopropylmethyl)-6-{4-[1-(2-methoxyethyl)piperidin-4-yl]-1,4-diazepan-1-yl}pyridine-2-carboxamide] |
| 100 to 500 nM | CC(C)N1CCC(N2CCCN(c3cccc(C(=O)NCCCn4ccnc4)n3)CC2)CC1 [Example 3, N-[3-(1H-Imidazol-1-yl)propyl]-6-{4-[1-(propan-2-yl)piperidin-4-yl]-1,4-diazepan-1-yl}pyridine-2-carboxamide] |
| 100 to 500 nM | CC(C)N1CCC(N2CCCN(c3cccc(C(=O)NCCN(C)C)n3)CC2)CC1 [Example 16, N-[2-(Dimethylamino)ethyl]-6-{4-[1-(propan-2-yl)piperidin-4-yl]-1,4-diazepan-1-yl}pyridine-2-carboxamide] |
| 100 to 500 nM | Clc1ccccc1CN1CCC(N2CCCN(c3nccs3)CC2)CC1 [Example 267, 1-{1-[(2-Chlorophenyl)methyl]piperidin-4-yl}-4-(1,3-thiazol-2-yl)-1,4-diazepane] |
| 20 to 100 nM | CC(C)N1CCC(N2CCCN(c3cccc(-c4cc5ccccc5[nH]4)n3)CC2)CC1 [Example 100, 2-(6-{4-[1-(Propan-2-yl)piperidin-4-yl]-1,4-diazepan-1-yl}pyridine-2-yl)-1H-indole] |
| 20 to 100 nM | [2H]C1([2H])CCN(c2cccc(C(=O)Nc3ccncc3)n2)CC(C)N1C1CCN([C@@H](C)C(F)(F)F)CC1 (stereo partly drawn) [Example 196, 6-(5,5-Dihydrogenio-3-methyl-4-{1-[(2S)-1,1,1-trifluoropropan-2-yl]piperidin-4-yl}-1,4-diazepan-1-yl)-N-(pyridin-4-yl)pyridine-2-carboxamide] |
| 20 to 100 nM | CC(C)c1cnc(-c2cccc(N3CCCN(C4CCN(C(C)C)CC4)CC3)n2)[nH]1 [Example 110, 1-{6-[4-(Propan-2-yl)-1H-imidazol-2-yl]pyridine-2-yl}-4-[1-(propan-2-yl)piperidin-4-yl]-1,4-diazepane] |
| 100 to 500 nM | CC(C)N1CCC(N2CCCN(c3cccc(C(=O)N4CCc5ccccc54)n3)CC2)CC1 [Example 21, 1-[(6-{4-[1-(Propan-2-yl)piperidin-4-yl]-1,4-diazepan-1-yl}pyridin-2-yl)carbonyl]-2,3-dihydro-1H-indole] |
| 100 to 500 nM | CC(C)(C)c1cnc(-c2cccc(N3CCCN(C4CCN(C(C)(C)C)CC4)CC3)n2)[nH]1 [Example 117, 1-[6-(4-tert-Butyl-1H-imidazol-2-yl)pyridine-2-yl]-4-(1-tert-butylpiperidin-4-yl)-1,4-diazepane] |
| 20 to 100 nM | O=C(NCC1CC1)c1cccc(N2CCCN(C3CCN(C4CCCC4F)CC3)CC2)n1 (centres unmarked) [Example 73, N-(Cyclopropylmethyl)-6-{4-[1-(2-fluorocyclopentyl)piperidin-4-yl]-1,4-diazepan-1-yl}pyridine-2-carboxamide] |
| 100 to 500 nM | Cc1nc(-c2cccc(NCCNC3CCCN(C4CCCC4)C3)n2)[nH]c1C1CC1 (centres unmarked) [Example 231, N-{2-[(1-Cyclopentylpiperidin-3-yl)amino]ethyl}-6-(5-cyclopropyl-4-methyl-1H-imidazol-2-yl)pyridin-2-amine] |
| < 20 nM | CCc1[nH]c(-c2cccc(N3CCCN(C4CCN(C(C)C)CC4)CC3)n2)nc1C [Example 119, 1-[6-(5-Ethyl-4-methyl-1H-imidazol-2-yl)pyridine-2-yl]-4-[1-(propan-2-yl)piperidin-4-yl]-1,4-diazepane] |
| < 20 nM | CC(C)(C)N1CCC(N2CCCN(c3cccc(C(=O)Nc4ccncc4)n3)CC2)CC1 [Example 80, 6-[4-(1-tert-Butylpiperidin-4-yl)-1,4-diazepan-1-yl]-N-(pyridine-4-yl)pyridine-2-carboxamide] |
| 20 to 100 nM | COCCNC(=O)c1cccc(N2CCCN(C3CCN(C(C)C)CC3)CC2)n1 [Example 14, N-(2-Methoxyethyl)-6-{4-[1-(propan-2-yl)piperidin-4-yl]-1,4-diazepan-1-yl}pyridine-2-carboxamide] |
| < 20 nM | CC(C)N1CCC(N2CCCN(c3cccc(-c4nc5ccccc5[nH]4)n3)CC2)CC1 [Example 141, 2-(6-{4-[1-(Propan-2-yl)piperidin-4-yl]-1,4-diazepan-1-yl}pyridine-2-yl)-1H-1,3-benzodiazole] |
| 100 to 500 nM | CC(C)N1CCC(N2CCCN(c3cccc(C(=O)NCCC#N)n3)CC2)CC1 [Example 13, N-(2-Cyanoethyl)-6-{4-[1-(propan-2-yl)piperidin-4-yl]-1,4-diazepan-1-yl}pyridine-2-carboxamide] |
| 100 to 500 nM | CC(C)N1CCC(N2CCCN(c3cccc(-c4ncc(C5CC5)[nH]4)n3)CC2)C(F)C1 (centres unmarked) [Example 212, 1-[6-(4-Cyclopropyl-1H-imidazol-2-yl)pyridin-2-yl]-4-[3-fluoro-1-(propan-2-yl)piperidin-4-yl]-1,4-diazepane] |
| 20 to 100 nM | CC(CC(F)(F)F)N1CCC(N2CCCN(c3cccc(C(=O)NCc4cccnc4)n3)CC2)CC1 (centres unmarked) [Example 90, N-(Pyridin-3-ylmethyl)-6-{4-[1-(4,4,4-trifluorobutan-2-yl)piperidin-4-yl]-1,4-diazepan-1-yl}pyridine-2-carboxamide] |
| 20 to 100 nM | CC(C)N1CCC(N2CCCN(c3cccc(C(=O)NCc4cnco4)n3)CC2)CC1 [Example 44, N-(1,3-Oxazol-5-ylmethyl)-6-{4-[1-(propan-2-yl)piperidin-4-yl]-1,4-diazepan-1-yl}pyridine-2-carboxamide] |
